Where two headings read alike, the source gives them in different places.
Key:
Assay type in all cases: biochemical
Pim1 kinase = Pim1 kinase (Homo sapiens, UniProt P11309); assay: Pim1 ATP depletion assay; conditions: Pim1 ATP depletion assay;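 further: Luciferase-luciferin luminescence readout of residual ATP after PIM1 transfers phosphate to a peptide substrate, 40 µM ATP added, reaction run to roughly half ATP consumption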
Pim3 kinase = Pim3 kinase (Homo sapiens, UniProt Q86V86); assay: Pim3 ATP depletion assay
Pim2 kinase = Pim2 kinase (Homo sapiens, UniProt Q9P1W9); assay: Pim2 ATP depletion assay;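 further: Luciferase-based luminescent readout of ATP remaining after PIM2 phosphorylates a BAD peptide, final 5 nM enzyme, 4 µM ATP, 10 µM peptide, 2.5% DMSO, run to roughly half ATP consumption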
Sequence of Pim2 kinase (Q9P1W9 whole entry): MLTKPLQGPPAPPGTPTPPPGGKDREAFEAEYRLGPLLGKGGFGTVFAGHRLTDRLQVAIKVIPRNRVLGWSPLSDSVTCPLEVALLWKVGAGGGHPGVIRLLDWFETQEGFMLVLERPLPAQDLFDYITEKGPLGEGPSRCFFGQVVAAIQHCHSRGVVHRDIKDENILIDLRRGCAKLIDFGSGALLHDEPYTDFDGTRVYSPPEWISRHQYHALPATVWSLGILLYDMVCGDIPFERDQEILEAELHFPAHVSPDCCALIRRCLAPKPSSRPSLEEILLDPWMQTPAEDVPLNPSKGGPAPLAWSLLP

Sequence of Pim1 kinase (P11309 whole entry): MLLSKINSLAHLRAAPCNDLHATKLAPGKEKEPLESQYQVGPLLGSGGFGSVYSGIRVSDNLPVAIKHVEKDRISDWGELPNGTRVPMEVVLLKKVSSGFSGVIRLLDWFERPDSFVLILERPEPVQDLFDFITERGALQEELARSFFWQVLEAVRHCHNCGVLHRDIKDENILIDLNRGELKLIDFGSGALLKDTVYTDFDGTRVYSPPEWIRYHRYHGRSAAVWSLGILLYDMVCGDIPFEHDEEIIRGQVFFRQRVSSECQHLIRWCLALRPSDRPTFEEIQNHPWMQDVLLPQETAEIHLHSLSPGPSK

| SMILES | IC50 (Pim1 kinase; read-out: PIM1 IC50) | IC50 (Pim3 kinase; read-out: PIM3 IC50) | IC50 (Pim2 kinase; read-out: PIM2 IC50) | IC50 (Pim1 kinase; read-out: IC50 (μM) PIM1) | IC50 (Pim3 kinase; read-out: IC50 (μM) PIM3) | IC50 (Pim2 kinase; read-out: IC50 (μM) PIM2) |
| --- | --- | --- | --- | --- | --- | --- |
| Cc1ccccc1-c1ccncc1NC(=O)c1nc(-c2ccccc2F)ccc1N [Example 586, 3-amino-6-(2-fluoro-phenyl)-pyridine-2-carboxylic acid (4-o-tolyl-pyridin-3-yl)-amide] | < 1 µM | < 1 µM | 1 to 10 µM |  |  |  |
| Cc1ccncc1-c1ccc(N)c(C(=O)Nc2cnccc2N2CCC[C@H](N)C2)n1 [Example 472, 5-Amino-4′-methyl-[2,3′]bi-pyridinyl-6-carboxylic acid (3-amino-3,4,5,6-tetrahydro-2H-[1,4′]bipyridinyl-3′-yl)-amide] |  |  |  | < 1 µM | < 1 µM | < 1 µM |
| CC1(N)CCCN(c2ccncc2NC(=O)c2nc(-c3ccccc3F)ccc2N)C1 (stereo not drawn) [Example 674, 3-Amino-6-(2-fluoro-phenyl)-pyridine-2-carboxylic acid (3-amino-3-methyl-3,4,5,6-tetra-hydro-2H-[1,4′]bipyridinyl-3′-yl)-amide] | < 1 µM | < 1 µM | < 1 µM |  |  |  |
| Nc1cc(F)c(-c2ccccc2)nc1C(=O)Nc1cnccc1N1CCC[C@H](N)C1 [Example 499, 3-Amino-5-fluoro-6-phenyl-pyridine-2-carboxylic acid (3-amino-3,4,5,6-tetrahydro-2H-[1,4′]bipyridinyl-3′-yl)-amide] |  |  |  | < 1 µM | < 1 µM | < 1 µM |
| Nc1nccnc1C(=O)Nc1cc(C(=O)C2CC2)ccc1N1CCNCC1 [Example 245, 3-amino-N-[5-(cyclopropyl-carbonyl)-2-piperazin-1-yl-phenyl]pyrazine-2-carboxamide] |  |  |  | > 25 µM | 10 to 25 µM | > 25 µM |
| NC1CC(C(F)(F)F)CN(c2ccncc2NC(=O)c2ccc(F)c(-c3ccccc3F)n2)C1 (stereo not drawn) [Example 281, 5-Fluoro-6-(2-fluoro-phenyl)-pyridine-2-carboxylic acid (3-amino-5-trifluoromethyl-3,4,5,6-tetrahydro-2H-[1,4′]bipyridinyl-3′-yl)-amide] |  |  |  | < 1 µM | < 1 µM | < 1 µM |
| Nc1ccc(-c2c(F)cccc2F)nc1C(=O)Nc1cnccc1N1CCCOCC1 [Example 168, 3-Amino-6-(2,6-difluoro-phenyl)-pyridine-2-carboxylic acid (4-[1,4]oxazepan-4-yl-pyridin-3-yl)-amide] |  |  |  | < 1 µM | < 1 µM | < 1 µM |
| CC(C)NC(=O)c1ccc(F)c(-c2ccc(N)c(C(=O)Nc3cnccc3N3CC[C@H](F)[C@H](N)C3)n2)c1 [Example 258, 3-Amino-6-(2-fluoro-5-isopropylcarbamoyl-phenyl)-pyridine-2-carboxylic acid (3-amino-4-fluoro-3,4,5,6-tetra-hydro-2H-[1,4′]bipyridinyl-3′-yl)-amide] |  |  |  | < 1 µM | < 1 µM | < 1 µM |
| Nc1ccc(C2CCCCC2)nc1C(=O)Nc1cnccc1N1CC(N)CC(C(F)(F)F)C1 (stereo not drawn) [Example 279, 3-Amino-6-cyclohexyl-pyridine-2-carboxylic acid (3-amino-5-trifluoromethyl-3,4,5,6-tetra-hydro-2H-[1,4′]bipyridinyl-3′-yl)-amide] |  |  |  | < 1 µM | < 1 µM | < 1 µM |
| CC(C)Oc1ccc(F)c(-c2ccc(N)c(C(=O)Nc3cnccc3N3CCC[C@H](N)C3)n2)c1 [Example 467, 3-Amino-6-(2-fluoro-5-isopropoxy-phenyl)-pyridine-2-carboxylic acid (3-amino-3,4,5,6-tetrahydro-2H-[1,4′]bipyridinyl-3′-yl)-amide] |  |  |  | < 1 µM | < 1 µM | < 1 µM |
| N[C@H]1CCCN(c2ccncc2NC(=O)c2nc(-c3ccccc3F)ccc2F)C1 [Example 571, 3-Fluoro-6-(2-fluoro-phenyl)-pyridine-2-carboxylic acid (3-amino-3,4,5,6-tetrahydro-2H-[1,4′]bipyridinyl-3′-yl)-amide] | < 1 µM | < 1 µM | < 1 µM |  |  |  |
| Nc1ccc(-c2cccc(Cl)c2F)nc1C(=O)Nc1cnccc1N1CCCC(O)C1 (stereo not drawn) [Example 655, 3-Amino-6-(3-chloro-2-fluoro-phenyl)-pyridine-2-carboxylic acid (3-hydroxy-3,4,5,6-tetra-hydro-2H-[1,4′]bipyridinyl-3′-yl)-amide] | < 1 µM | < 1 µM | < 1 µM |  |  |  |
| Nc1cc(-c2ccncc2NC(=O)c2cccc(-c3nccs3)n2)nc(C(F)(F)F)n1 [Example 647, N-{4-[6-amino-2-(trifluoro-methyl)pyrimidin-4-yl]-pyridin-3-yl}-6-(1,3-thiazol-2-yl)pyridine-2-carboxamide] | < 1 µM | < 1 µM | < 1 µM |  |  |  |
| Nc1ccc(-c2c(F)cccc2F)nc1C(=O)Nc1cnccc1N1CCCC(O)C1 (stereo not drawn) [Example 658, 3-Amino-6-(2,6-difluoro-phenyl)-pyridine-2-carboxylic acid (3-hydroxy-3,4,5,6-tetra-hydro-2H-[1,4′]bipyridinyl-3′-yl)-amide] | < 1 µM | < 1 µM | < 1 µM |  |  |  |
| N[C@H]1CCCN(c2ccncc2NC(=O)c2cccc(-c3nccs3)n2)C1 [Example 631, N-{4-[(3S)-3-amino-piperidin-1-yl]pyridin-3-yl}-6-(1,3-thiazol-2-yl)pyridine-2-carboxamide] | < 1 µM | < 1 µM | < 1 µM |  |  |  |
| Nc1ccc(-c2ccccc2)nc1C(=O)Nc1cnccc1N1C[C@@H](N)C[C@@H](F)C1 [Example 578, 3-Amino-6-phenyl-pyridine-2-carboxylic acid (3-amino-5-fluoro-3,4,5,6-tetrahydro-2H-[1,4′]bipyridinyl-3′-yl)-amide] | < 1 µM | < 1 µM | < 1 µM |  |  |  |
| CCCOc1cncc(-c2ccc(N)c(C(=O)Nc3cnccc3N3CCC[C@H](N)C3)n2)n1 [Example 747, 3-Amino-6-(6-propoxy-pyrazin-2-yl)-pyridine-2-carboxylic acid (3-amino-3,4,5,6-tetrahydro-2H-[1,4′]bipyridinyl-3′-yl)-amide] | < 1 µM | < 1 µM | < 1 µM |  |  |  |
| COc1ncccc1-c1ccc(N)c(C(=O)Nc2cnccc2-c2ccccc2C)n1 [Example 584, 5-amino-2′-methoxy-[2,3′]bi-pyridinyl-6-carboxylic acid (4-o-tolyl-pyridin-3-yl)-amide] | < 1 µM | < 1 µM | 1 to 10 µM |  |  |  |
| CC1(N)CCCN(c2ccncc2NC(=O)c2nc(-c3c(F)cccc3F)ncc2N)C1 (stereo not drawn) [Example 673, 5-Amino-2-(2,6-difluoro-phenyl)-pyrimidine-4-carboxylic acid (3-amino-3-methyl-3,4,5,6-tetrahydro-2H-[1,4′]bipyridinyl-3′-yl)-amide] | < 1 µM | < 1 µM | < 1 µM |  |  |  |
| Nc1cccc(-c2ccc(N)c(C(=O)Nc3cnccc3N3CCC[C@H](N)C3)n2)n1 [Example 711, 5,6′-Diamino-[2,2′]bipyridinyl-6-carboxylic acid (3-amino-3,4,5,6-tetrahydro-2H-[1,4′]bi-pyridinyl-3′-yl)-amide] | < 1 µM | < 1 µM | < 1 µM |  |  |  |
| CC(C)NC(=O)c1ccc(F)c(-c2ccc(N)c(C(=O)Nc3cnccc3N3CC[C@@H](O)[C@H](N)C3)n2)c1 [Example 671, 3-Amino-6-(2-fluoro-5-isopropylcarbamoyl-phenyl)-pyridine-2-carboxylic acid (3-amino-4-hydroxy-3,4,5,6-tetra-hydro-2H-[1,4′]bipyridinyl-3′-yl)-amide] | < 1 µM | < 1 µM | < 1 µM |  |  |  |
| COc1ccc(F)c(-c2ccc(N)c(C(=O)Nc3cnccc3N3CCC[C@H](N)C3)n2)c1 [Example 470, 3-Amino-6-(2-fluoro-5-methoxy-phenyl)-pyridine-2-carboxylic acid (3-amino-3,4,5,6-tetrahydro-2H-[1,4′]bipyridinyl-3′-yl)-amide] |  |  |  | < 1 µM | < 1 µM | < 1 µM |
| CCCNC(=O)c1ccc(F)c(-c2ccc(N)c(C(=O)Nc3cnccc3-c3cc(N)nc(C)n3)n2)c1 [Example 565, 3-Amino-6-(2-fluoro-5-propylcarbamoyl-phenyl)-pyridine-2-carboxylic acid [4-(6-amino-2-methyl-pyrimidin-4-yl)-pyridin-3-yl]-amide] | < 1 µM | < 1 µM | < 1 µM |  |  |  |
| Nc1ccc(-c2c(F)cccc2F)nc1C(=O)Nc1cnccc1N1CC(N)CC(CO)C1 (stereo not drawn) [Example 576, 3-Amino-6-(2,6-difluoro-phenyl)-pyridine-2-carboxylic acid (5-amino-3-hydroxymethyl-3,4,5,6-tetrahydro-2H-[1,4′]bipyridinyl-3′-yl)-amide] | < 1 µM | < 1 µM | < 1 µM |  |  |  |
| Nc1ccc(-c2ccc(C(F)(F)F)cn2)nc1C(=O)Nc1cnccc1N1CCC[C@H](N)C1 [Example 714, 5-Amino-5′-trifluoromethyl-[2,2′]bipyridinyl-6-carboxylic acid (3-amino-3,4,5,6-tetra-hydro-2H-[1,4′]bipyridinyl-3′-yl)-amide] | < 1 µM | < 1 µM | < 1 µM |  |  |  |
| Nc1cc(-c2ccncc2NC(=O)c2cccc(-c3ccccc3)n2)nc(C(F)(F)F)n1 [Example 530, 6-Phenyl-pyridine-2-carboxylic acid [4-(6-amino-2-trifluoromethyl-pyrimidin-4-yl)-pyridin-3-yl]-amide] |  |  |  | < 1 µM | < 1 µM | < 1 µM |
| CC(C)N(C)C(=O)c1ccc(F)c(-c2ccc(N)c(C(=O)Nc3cnccc3N3CCC[C@H](N)C3)n2)c1F [Example 689, 3-Amino-6-[2,6-difluoro-3-(isopropyl-methyl-carbamoyl)-phenyl]-pyridine-2-carboxylic acid (3-amino-3,4,5,6-tetra-hydro-2H-[1,4′]bipyridinyl-3′-yl)-amide] | < 1 µM | < 1 µM | < 1 µM |  |  |  |

Reference: patent publication US20140249135A1, “PIM KINASE INHIBITORS AND METHODS OF THEIR USE” (NOVARTIS AG, priority 2007, published 2014)
